Assay results published in patent US20130012465A1 (Boehringer Ingelheim International GmbH, priority 2009, published 2013).
Where two headings read alike, the source gives them in different places.

What was measured:
SUM149 Xenografts = experiment: triple negative, EGFR positive SUM149 Xenografts in mice; assay type: in vivo
SUM 149PT = experiment: triple negative breast cell panel, EC50 2D/3D; assay type: cell-based; details: Homo sapiens, SUM149PT
HCC 1806 = experiment: triple negative breast cell panel, EC50 2D/3D; assay type: cell-based; details: Homo sapiens, HCC1806
HCC 1143 = experiment: triple negative breast cell panel, EC50 2D/3D; assay type: cell-based; details: Homo sapiens, HCC1143
BT20 = experiment: triple negative breast cell panel, EC50 2D/3D; assay type: cell-based; details: Homo sapiens, BT-20
HCC 1937 = experiment: triple negative breast cell panel, EC50 2D/3D; assay type: cell-based; details: Homo sapiens, HCC1937
MDA-MB-231 = experiment: triple negative breast cell panel, EC50 2D/3D; assay type: cell-based; details: Homo sapiens
CAMA-1 = experiment: triple negative breast cell panel, EC50 2D/3D; assay type: cell-based; details: Homo sapiens
HCC 70 = experiment: triple negative breast cell panel, EC50 2D/3D; assay type: cell-based; details: Homo sapiens, HCC70
MDA-MB-468 = experiment: triple negative breast cell panel, EC50 2D/3D; assay type: cell-based; details: Homo sapiens; MDA-MB-468, 3D
BT 549 = experiment: triple negative breast cell panel, EC50 2D/3D; assay type: cell-based; details: Homo sapiens
triple negative mBC = details: Cohort A
Description: (§1) A Phase II, open-label, multicenter trial was conducted in Belgium and Germany. Two Cohorts of patients were included: • Cohort A: Patients with triple negative mBC • Cohort B: Patients with HER2-negative, HR-positive mBC. • Primary endpoint for Cohort A and B initially was objective response as determined by response evaluation criteria in solid tumours (RECIST) criteria, as described by P. Therasse et al., J Natl Cancer Inst 2000, 92, 205-216. For Cohort A this was modified by amendment to clinical benefit (CB), i.e. complete response (CR), partial response (PR) and stable disease (SD) for at least 4 courses. • Secondary endpoints were time to progression, progression-free survival (PFS), overall survival (OS), time to objective response, duration of objective response, safety and pharmacokintics (PK). Clinical benefit (CR, PR, SD) was a secondary endpoint for Cohort B. • A total of 80 patients was planned to be enrolled into the trial: 80, i.e. 40 patients per cohort. […] Additional predose plasma samples were taken on Day 15 of Course 1, on Day 1 of Course 2 and on Day 1 of all subsequent courses (Course 3 onwards).
(§2) Dose reduction to 40 mg/day and 30 mg/day was an option for patients experiencing certain drug-related AEs.
• HR-negative patients: estrogen receptor (ER) status and progesterone receptor (PgR) status must be assessed by immunohistochemistry (IHC) and Allred (Harvey J M et al., J Clin Oncol 1999, 17(5), 1474-1481).

[1] = tested on: HER2-negative, HR-positive mBC; experiment: Phase II clinical study, Cohort B; assay type: in vivo, human
Description: as §1, §2
• Confirmed diagnosis of Stage IV HER2-negative metastatic breast cancer (HER22+ and fluorescence in situ hybridization-negative or HER21+ or negative) • Progression following no more than two lines of chemotherapy including adjuvant, not including hormone treatments for Cohort B • Age ≧18 years • Life expectancy of at least 6 months • Written informed consent • Eastern Cooperative Oncology Group (ECOG) performance score 0-2 • Measurable disease according to RECIST criteria • Availability of tumour samples (fresh or paraffin material) for EGFR-testing. • No prior treatment with EGFR/HER1 or HER2 inhibiting agent • Adequate liver, kidney and bone marrow function • No concomitant treatment with other investigational drugs • No other anti-cancer-therapy within four weeks prior to the first treatment with the trial drug. • Concurrent treatment with biphosphonates is allowed.
• ER-positive and/or PgR-positive patients: ER-status and PgR-status must be assessed by IHC and Allred (Harvey J M et al., J Clin Oncol 1999, 17(5), 1474-1481).

[2] = tested on: HER2-negative metastatic breast cancer; experiment: Phase II clinical study, all treated patients (safety, PK, exposure); assay type: in vivo, human
Description: as §1, with “Two Cohorts of patients were included: • Cohort A: Patients with triple negative mBC • Cohort B: Patients with HER2-negative, HR-positive mBC. • Primary endpoint for Cohort A and B initially was objective response as determined by response evaluation criteria in solid tumours (RECIST) criteria, as described by P. Therasse et al., J Natl Cancer Inst 2000, 92, 205-216.” left out
as §2

[3] = HCC 1806, 2D, read-out: EC50 [nM] 2D
[4] = HCC 1806, 3D, read-out: EC50 [nM] 3D
[5] = HCC 1143, 2D, read-out: EC50 [nM] 2D
[6] = HCC 1143, 3D, read-out: EC50 [nM] 3D
[7] = BT20, 2D, read-out: EC50 [nM] 2D
[8] = BT20, 3D, read-out: EC50 [nM] 3D
[9] = HCC 1937, 2D, read-out: EC50 [nM] 2D
[10] = HCC 1937, 3D, read-out: EC50 [nM] 3D
[11] = MDA-MB-231, 2D, read-out: EC50 [nM] 2D
[12] = MDA-MB-231, 3D, read-out: EC50 [nM] 3D
[13] = CAMA-1, 2D, read-out: EC50 [nM] 2D
[14] = CAMA-1, 3D, read-out: EC50 [nM] 3D
[15] = HCC 70, 2D, read-out: EC50 [nM] 2D
[16] = HCC 70, 3D, read-out: EC50 [nM] 3D
[17] = BT 549, 2D, read-out: EC50 [nM] 2D
[18] = three patients with clinical benefit for >4 months
[19] = 50 treated patients, 50 mg/day oral

Compound | EC50 (SUM 149PT) [nM] | EC50 (HCC 1806; [3]) [nM] | EC50 (HCC 1806; [4]) [nM] | EC50 (HCC 1143; [5]) [nM] | EC50 (HCC 1143; [6]) [nM] | EC50 (BT20; [7]) [nM] | EC50 (BT20; [8]) [nM] | EC50 (HCC 1937; [9]) [nM] | EC50 (HCC 1937; [10]) [nM] | EC50 (MDA-MB-231; [11]) [nM] | EC50 (MDA-MB-231; [12]) [nM] | EC50 (CAMA-1; [13]) [nM] | EC50 (CAMA-1; [14]) [nM] | EC50 (HCC 70; [15]) [nM] | EC50 (HCC 70; [16]) [nM] | EC50 (MDA-MB-468) [nM] | EC50 (BT 549; [17]) [nM] | further results
CCOc1cc2ncc(C#N)c(Nc3ccc(OCc4ccccn4)c(Cl)c3)c2cc1NC(=O)/C=C/CN(C)C [HKI-272] | – | – | – | – | – | – | – | – | – | – | – | – | – | – | – | – | – | T/C [%] Day 42 (SUM149 Xenografts; 50 mg/kg/d (MTD)): 36%
C#Cc1cccc(Nc2ncnc3cc(OCCOC)c(OCCOC)cc23)c1 [erlotinib] | – | – | – | – | – | – | – | – | – | – | – | – | – | – | – | – | – | T/C [%] Day 42 (SUM149 Xenografts; 75 mg/kg/d (MTD)): 6%
CN(C)C/C=C/C(=O)Nc1cc2c(Nc3ccc(F)c(Cl)c3)ncnc2cc1O[C@H]1CCOC1 [BIBW 2992, 4-[(3-chloro-4-fluorophenyl)amino]-6-{[4-(N,N-dimethylamino)-1-oxo-2-buten-1-yl]amino}-7-((S)-tetrahydrofuran-3-yloxy)-quinazo line] | 17 | > 4000 | 47 | > 4000 | > 1000 | > 4000 | 23 | > 4000 | > 4000 | > 10000 | 2150 | 234 | 277 | 571 | > 1000 | 1250 | 2020 | EC50 (BT 549; BT 549, 3D, read-out: EC50 [nM] 3D): 956 nM; patients discontinued due to disease progression (triple negative mBC): 19 patients; objective response (OR), RECIST (triple negative mBC; 50 mg/day oral): No objective response; patients remaining on treatment with SD for >4 cycles (triple negative mBC; 50 mg/day oral): three; overall median PFS (triple negative mBC; 29 patients): 53 days; patients with a best response of SD (triple negative mBC; 29 patients included, 50 mg/day oral): Seven; mean PFS (triple negative mBC; [18]): 217 days; median PFS (triple negative mBC; [18]): 184 days; patients discontinued due to disease progression [1]: 12 patients; objective response (OR), RECIST ([1]; 50 mg/day oral): No OR; patients with SD for ≧4 cycles ([1]; 50 mg/day oral): 1 patient; patients with a best response of SD ([1]; 21 patients included, 50 mg/day oral): 5 patients; patients discontinued due to dose-reducing toxicities ([2]; 50 treated patients): 15 patients; patients discontinued due to other AEs ([2]; 50 treated patients): four; patients discontinued treatment due to AEs [2, 19]: Nineteen; safety profile [2, 19]: safety profile similar to other EGFR TKIs; patients discontinued due to disease progression ([2]; all 50 treated patients): Thirty-one
CS(=O)(=O)CCNCc1ccc(-c2ccc3ncnc(Nc4ccc(OCc5cccc(F)c5)c(Cl)c4)c3c2)o1 [lapatinib, reference compound] | 1360 | > 4000 | > 4000 | > 4000 | > 4000 | > 4000 | 467 | > 4000 | > 4000 | > 10000 | > 4000 | > 1000 | 3010 | > 1000 | > 1000 | > 1000 | > 1000 | T/C [%] Day 42 (SUM149 Xenografts; 2 × 100 mg/kg/d (MTD)): 25%
